The text below walks through data of PubChem BioAssay (NCI).

Among the test systems are NCI/ADR-RES ovarian; MCF7 breast; BT-549 breast; T-47D breast.
Common to all, as to experiment: inhibition of tumour cell growth, NCI panel, 48 h

Several values for one entry are separate records, joined by “and”; a condition that tells them apart may be missing. Identical values can stand only once.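 Each compound was tested at five concentrations against cells in 96-well plates for 48 hours. GI50 is the concentration that inhibits growth by half. TGI is the concentration that stops growth completely.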

As for `COc1ccc2cc(-c3c(-c4ccncc4)nc(-c4ccc(S(C)(=O)=O)cc4C)n3C)ccc2c1`, the GI50 is 8.67 µM in the assay on NCI/ADR-RES ovarian, 7.09 µM in the assay on MCF7 breast, 10.6 µM with BT-549 breast and 5.14 µM with T-47D breast. Also, the TGI in the assay with NCI/ADR-RES ovarian is > 25 µM; in the assay on MCF7 breast, > 18.4 µM; with BT-549 breast, > 25 µM; in the assay with T-47D breast, > 18.6 µM.
Take `CCOC(=O)/C=C/C1=C(c2cccs2)c2ccccc2CC1`: the GI50 in the assay with NCI/ADR-RES ovarian was 21.1 µM; in the assay with MCF7 breast it was 36.1 µM; in the assay with BT-549 breast, 24.2 µM; in the assay on T-47D breast it was 36.5 µM. Further, the TGI was 55.9 µM in the assay with NCI/ADR-RES ovarian, > 100 µM in the assay with MCF7 breast, 54.3 µM in the assay on BT-549 breast and > 100 µM in the assay on T-47D breast.
Regarding `COc1ccc2c(c1)/C(=C\c1c(Cl)[nH]c3ccc(OC)cc13)C(=O)N2`, the GI50 was > 100 µM with NCI/ADR-RES ovarian, 44.9 µM with MCF7 breast, 28.8 µM in the assay with BT-549 breast and 13 µM in the assay on T-47D breast. The TGI is > 100 µM in the assay on NCI/ADR-RES ovarian, > 100 µM in the assay on MCF7 breast, > 100 µM in the assay on BT-549 breast and 32 µM in the assay on T-47D breast.
Consider `C=CC(=O)Nc1cc2c(Nc3ccc(F)c(Cl)c3)ncnc2cc1OCCCN1CCOCC1`, for which the GI50 is 1.71 µM and 2.36 µM in the assay on NCI/ADR-RES ovarian; 1.32 µM and 2.52 µM in the assay with MCF7 breast; 2.04 µM and 2.57 µM with BT-549 breast; 0.0677 µM and 0.182 µM with T-47D breast. For the same compound, the TGI is 8.79 µM and > 10 µM in the assay with NCI/ADR-RES ovarian; 7.01 µM and > 10 µM with MCF7 breast; 5.7 µM and > 7.88 µM with BT-549 breast; 18.7 µM and > 10 µM in the assay with T-47D breast.
Regarding `CCOc1cccc(/C=N/NC(=O)C(=O)Nc2cccc(C(F)(F)F)c2)c1O`, the GI50 is 2.02 µM in the assay on NCI/ADR-RES ovarian, 2.14 µM in the assay with MCF7 breast, 5.36 µM in the assay on BT-549 breast and 2.67 µM with T-47D breast. Further, the TGI in the assay with NCI/ADR-RES ovarian was 37.1 µM; with MCF7 breast, > 100 µM; in the assay with BT-549 breast, > 100 µM; in the assay with T-47D breast, 36.1 µM.
As for `CNCCn1c(=O)c2cc(OC)c(OC)cc2c2ccc3cc4c(cc3c21)OCO4`, the GI50 with NCI/ADR-RES ovarian is 0.217 µM; in the assay with MCF7 breast, 0.0296 µM; with BT-549 breast it was 0.263 µM; with T-47D breast, 0.0838 µM. Besides, the TGI worked out at 3.19 µM in the assay on NCI/ADR-RES ovarian, 4.43 µM with MCF7 breast, 4.37 µM in the assay on BT-549 breast and 3.43 µM in the assay on T-47D breast.
Turning to `CCCOc1ccc2nc(NC(=O)OC)[nH]c2c1`, the GI50 in the assay on NCI/ADR-RES ovarian is 0.244 µM; in the assay on MCF7 breast, 0.239 µM; in the assay with BT-549 breast, 1.06 µM; with T-47D breast, > 100 µM. The TGI in the assay on NCI/ADR-RES ovarian, in the assay with MCF7 breast, in the assay with BT-549 breast and with T-47D breast was > 100 µM in each case.
Consider `O=C(O)c1ccc2c(c1)CCCC(c1ccc(Cl)cc1Cl)=C2c1ccc(O[C@H]2CCN(CCCF)C2)cc1`, for which the GI50 was 13 µM in the assay on NCI/ADR-RES ovarian, < 0.01 µM in the assay on MCF7 breast, 10 µM in the assay on BT-549 breast and < 0.01 µM in the assay on T-47D breast. Moreover, the TGI is 27.4 µM with NCI/ADR-RES ovarian, 15.9 µM in the assay on MCF7 breast, 22.9 µM with BT-549 breast and 22.5 µM with T-47D breast.
As for `Cc1c(C(=O)NCCN2CCOCC2)cn2ncnc(Oc3ccc(NC(=O)Nc4ccc(Cl)c(C(F)(F)F)c4)cc3)c12`, the GI50 in the assay with NCI/ADR-RES ovarian is 2.13 µM; in the assay on BT-549 breast it was 1.66 µM; in the assay on T-47D breast it was 2.02 µM. Moreover, the TGI came out at 5.16 µM in the assay on NCI/ADR-RES ovarian, 3.21 µM in the assay on BT-549 breast and 6.38 µM with T-47D breast.
`O=C1NC(=S)S/C1=C(/C=C(\CC(=O)c1ccccc1)c1ccc(Cl)cc1)c1ccccc1`: the GI50 is 28.4 µM in the assay with NCI/ADR-RES ovarian, 19.8 µM with MCF7 breast, 33 µM in the assay with BT-549 breast and 35.6 µM with T-47D breast. In addition, the TGI in the assay with NCI/ADR-RES ovarian is 79.9 µM; with MCF7 breast, 48.1 µM; in the assay with BT-549 breast, > 100 µM; with T-47D breast, > 100 µM.
With `COc1cc2ncnc(Nc3ccc(F)c(Cl)c3)c2cc1NC(=O)/C=C/CN1CCCCC1`, the GI50 with NCI/ADR-RES ovarian was 1.48 µM and 1.12 µM; in the assay with MCF7 breast it was 2 µM and 2.03 µM; in the assay with BT-549 breast, 2.49 µM and 2.56 µM; in the assay with T-47D breast, 0.381 µM and 0.0625 µM. Also, the TGI in the assay on NCI/ADR-RES ovarian is 7.15 µM and 6.37 µM; in the assay on MCF7 breast, 6.32 µM and 6.56 µM; in the assay with BT-549 breast it was 8.32 µM and 9.98 µM; in the assay on T-47D breast, 3.67 µM and 4.9 µM.
For `OCCNc1ncnc2c1ncn2Cc1cccc(COc2cccc(OCc3cccc(Cn4cnc5c(NCCO)ncnc54)c3)c2)c1`, the GI50 in the assay on NCI/ADR-RES ovarian is > 100 µM; in the assay with MCF7 breast, 12.6 µM; in the assay on BT-549 breast, 11.9 µM; with T-47D breast, 16 µM. For the same compound, the TGI is > 100 µM with NCI/ADR-RES ovarian, 26.1 µM in the assay with MCF7 breast, 25.9 µM in the assay on BT-549 breast and 33.4 µM with T-47D breast.
Take `COc1ccc(C2=NN(C=O)C(c3cccc(Nc4ccnc5cc(Cl)ccc45)c3)C2)cc1` (stereo unspecified): the GI50 in the assay on NCI/ADR-RES ovarian is 1.66 µM; in the assay on MCF7 breast, 1.59 µM; with BT-549 breast, 1.93 µM; in the assay with T-47D breast, 1.39 µM. Moreover, the TGI in the assay with NCI/ADR-RES ovarian was 31.7 µM; with MCF7 breast, 39.4 µM; in the assay on BT-549 breast, 9.87 µM; in the assay with T-47D breast, 21 µM.
Consider `Cc1cc(S(=O)(=O)NC#N)c(S/C(=N\Nc2ccc([N+](=O)[O-])cc2)c2ccc(Cl)cc2)cc1Cl`, for which the GI50 with MCF7 breast is 15.9 µM; with BT-549 breast it was 20.3 µM; with T-47D breast, 3.89 µM. Besides, the TGI with MCF7 breast was found to be 42.6 µM; in the assay with BT-549 breast it was 73.4 µM; in the assay on T-47D breast, 42.6 µM.
On to `Nc1ccccc1C#C/C=C\C#Cc1ccccc1`, for which the GI50 in the assay on NCI/ADR-RES ovarian is 14.8 µM; in the assay on BT-549 breast, 3.29 µM; in the assay with T-47D breast it was 17.7 µM. The TGI was 32.4 µM in the assay with NCI/ADR-RES ovarian, 16.3 µM in the assay with BT-549 breast and 38.3 µM in the assay with T-47D breast.
With `CC[PH+](CC)CC.O=COC1OC([S-])C(OC=O)C(OC=O)C1OC=O.[Au+]` (stereo unspecified), the GI50 in the assay on NCI/ADR-RES ovarian was 2.21 µM; in the assay with BT-549 breast, 1.25 µM; in the assay with T-47D breast it was 1.96 µM. The TGI with NCI/ADR-RES ovarian is 5.03 µM; in the assay with BT-549 breast, 2.54 µM; in the assay with T-47D breast it was 6.47 µM.
Turning to `NC(=O)c1cc2c3ccccc3ccn2c1-c1ccccc1`, the GI50 is 0.0317 µM in the assay on NCI/ADR-RES ovarian, 0.0597 µM with MCF7 breast and 0.485 µM with BT-549 breast. For the same compound, the TGI in the assay with NCI/ADR-RES ovarian was 0.0919 µM; with MCF7 breast, 13.5 µM; in the assay with BT-549 breast, 13.1 µM.
